“And” between values parts separate entries of the source, which are not always exact repeats. Identical values can stand only once.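 Compound exposure: 48 hours, 5 concentrations, 96-well plates. GI50 marks 50% less growth. The concentration for full growth arrest is given as TGI.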
Key:
Test in all cases: NCI anticancer screen, dose series, 48 h
[1] = system: KM12 colon
[2] = system: OVCAR-8 ovarian
[3] = system: M14 melanoma
[4] = system: NCI-H522 lung
[5] = system: UO-31 renal
[6] = system: A498 renal
[7] = system: A549 NSCLC
[8] = system: NCI-H23 lung
[9] = system: HOP-18 NSCLC
[10] = system: SNB-78 CNS

Compound | GI50 [1] | TGI [1] [µM] | GI50 [2] | TGI [2] | GI50 [3] | TGI [3] | GI50 [4] | TGI [4] [µM] | GI50 [5] | TGI [5] | GI50 [6] | TGI [6] | GI50 [7] | TGI [7] | GI50 [8] | TGI [8] [µM] | TGI [9] [µM] | TGI [10] [µM]
Cc1nn(-c2ccc(Cl)cc2)c2ncnc(N/N=C/c3ccccc3O)c12 | 0.53 µM and 0.385 µM | > 100 | 0.42 µM and 0.361 µM | 43.2 µM and > 100 µM | 0.523 µM and 0.34 µM | 2.43 µM and 2.11 µM | 0.874 µM and 0.321 µM | > 69.6 | 0.331 µM and 0.251 µM | 3.01 µM and 3.35 µM | 12.3 µM and 3.23 µM | 70.1 µM and 23.5 µM | 1.77 µM and 0.699 µM | 17.2 µM and 16 µM | 2.05 µM and 0.721 µM | > 55 |  | 
COC(=O)C1C(C(=O)OC)C2C(=O)C3C(C(=O)OC)C(C(=O)OC)C3C(=O)C12 (centres undefined) |  | > 100 |  | > 100 µM |  |  |  | > 100 |  |  |  | > 100 µM |  | > 100 µM |  | > 100 | > 100 | > 100
CC(=O)ON1CCCC(P(=O)(OCOC(=O)C(C)(C)C)OCOC(=O)C(C)(C)C)C1=O (centres undefined) | 0.51 µM | 2.54 | 0.324 µM |  | 1.04 µM | 6.96 µM | 0.506 µM | 5.63 | 0.337 µM | 2.68 µM | 0.314 µM | 2.01 µM | 0.514 µM | 18.7 µM | 0.91 µM | 4.25 |  | 
CC(C)(CO)CNC(=O)c1ccc2[nH]c(O)c(N=Nc3ccc(S(N)(=O)=O)cc3)c2c1 | > 25 µM | > 25 | > 25 µM | > 25 µM | > 25 µM | > 25 µM | > 25 µM | > 25 | > 25 µM | > 25 µM | > 25 µM | > 25 µM | > 25 µM | > 25 µM | > 25 µM | > 25 |  | 
O=C(/C=C/C12c3ccccc3C(c3ccccc31)C1C(=O)NC(=O)C12)c1ccccn1 (centres undefined) | 1.43 µM | 3.03 | 1.8 µM | 5.54 µM | 1.83 µM | 4.12 µM | 1.52 µM | 3.37 | 1.32 µM | 2.74 µM | 1.66 µM | 3.15 µM | 2.34 µM | 6.86 µM | 1.89 µM | 4.07 |  | 
COc1ccc(OC)c(NCC(=O)n2nc(/C=C\c3ccc(O)c(OC)c3)cc2/C=C\c2ccc(O)c(OC)c2)c1 | 1.81 µM | 4.92 | 3.02 µM | 11.9 µM | 2.02 µM | 6.18 µM | 1.31 µM | 3.28 | 1.8 µM | 13.6 µM | 1.6 µM | 5.7 µM | 3.4 µM | 33.1 µM | 2.62 µM | 31.7 |  | 
CC1(C)OC[C@@H]([C@@]2(CO[Si](c3ccccc3)(c3ccccc3)C(C)(C)C)CC=CC(=O)O2)O1 | 4.99 µM | 56.3 | 5.05 µM | > 100 µM | 8.52 µM | 60.5 µM | 5.02 µM | > 100 | 12.2 µM | > 100 µM | 17.1 µM | 34.2 µM | 5.27 µM | > 100 µM | 10.2 µM | 40.2 |  | 
COc1cc(Nc2cnc3ccc(C(F)(F)F)cc3n2)cc(OC)c1OC |  |  |  | > 100 µM |  |  |  |  |  | > 100 µM |  |  |  | > 100 µM |  | > 100 | > 100 | > 100
CC1=NN(C(=O)Cc2ccccc2)C(=O)/C1=C\c1ccc(O)cc1 |  | > 100 |  | > 100 µM |  | > 100 µM |  | > 100 |  | > 100 µM |  | > 100 µM |  | > 100 µM |  | > 100 |  | > 100
N#CC1c2ccccc2C=CN1C(=O)CCCl (centres undefined) | 16.9 µM | 42.6 | 14.4 µM | 30.6 µM | 13.6 µM | 27.6 µM | 1.52 µM | 2.92 | 2.32 µM | 7.2 µM | 11.7 µM | 25.8 µM | 20.1 µM | 37.3 µM | 17.6 µM | 40.9 |  | 
COc1ccc2c(N)ncc(C#Cc3cc(C(=O)Nc4ccc(CN5CCN(C)CC5)c(C(F)(F)F)c4)cnc3C)c2c1 | 0.079 µM | 2.64 | 0.861 µM | 2.71 µM | 0.225 µM | 0.934 µM | 0.571 µM | 1.2 | 0.632 µM | 2.28 µM | 0.842 µM | 3 µM | 0.576 µM | 1.28 µM | 1.89 µM | 8.79 |  | 
COc1cc2c(N3CCN(C(=O)Nc4ccc(OC(C)C)cc4)CC3)ncnc2cc1OCCCN1CCCCC1 | 3.22 µM | 29.8 | 20.9 µM | 99.2 µM | 16.2 µM | 32.6 µM | 16.6 µM | 36.1 | 15.2 µM | 40.7 µM | 15 µM | 40.7 µM | 17.1 µM | > 93.7 µM | 14.6 µM | 39.1 |  | 
O=C1[C@@H]2C(c3c(Cl)cccc3Cl)=NO[C@@H]2C(=O)N1c1ccc(Cc2ccc(N3C(=O)[C@H]4C(c5c(Cl)cccc5Cl)=NO[C@H]4C3=O)cc2)cc1 |  | > 100 |  | > 100 µM |  | > 100 µM |  |  |  | > 100 µM |  | > 100 µM |  | > 100 µM |  | > 100 | > 100 | > 100
COc1ccc(CNc2cnc3ccc(N)cc3n2)cc1 |  | > 100 |  | > 100 µM |  | > 100 µM |  | > 100 |  | > 100 µM |  |  |  | > 100 µM |  | > 100 | > 100 | > 100
Cc1cc([N+](=O)[O-])c(C)c2c1[nH]c1ccc(Cl)cc12 |  | > 100 |  | > 100 µM |  | > 100 µM |  | 46 |  | > 100 µM |  |  |  | > 100 µM |  | > 100 | > 100 | > 100
c1ccc(-c2[nH]ncc2-c2ccnc(-c3ccc(OCCn4ccnc4)cc3)c2)nc1 | 13.7 µM | > 25 | 14.4 µM | > 25 µM | > 25 µM | > 25 µM | > 25 µM | > 25 | 6.57 µM | > 25 µM | > 25 µM | > 25 µM | > 25 µM | > 25 µM | > 25 µM | > 25 |  | 
